Measurements taken from US11420181B2, “Methods for suppression of ammonia formation from staphylococcus-xylosus and staphylococcus-cohnii” (Dow Global Technologies LLC, priority 2016, dated 2022).

Experiments:
[1] = Barrel test experiments on used broiler litter, Examples 5-8; details: used rice hull litter in tubs, vs untreated control
Excerpt: Used litter (rice hulls which may also contain poultry manure, moisture, feed residue and/or feathers) were acquired from a commercial broiler chicken farm and transported in plastic barrels. Twenty three kilograms of litter were weighed into 0.4 m^2 plastic tubs to cover the tubs to a depth of approximately 10 cm. The tubs were stored uncovered in a poultry rearing facility, and environmental conditions were controlled to mimic the conditions that would be experienced in a commercial broiler house (temperature around 32° C.).
Tubs were treated with NaHSO4 at a dose equivalent to 1 wt % Ammonia was then measured for 35 days.
Tubs were treated in two steps. A dose equivalent to 1 wt % of NaHSO4 as Acidifier was added to the tubs. After 24 hours, a dose equivalent to 3.2 wt % of Na2EDTA was added and dispersed. Ammonia was then measured for 35 days.
Tubs were treated in two steps. A dose equivalent to 1 wt % of NaHSO4 as Acidifier was added to the tubs. After 24 hours, a dose equivalent to 3.2 wt % of K2EDTA was added as an aqueous solution. Ammonia was then measured for 35 days.
Tubs were treated in two steps. A dose equivalent to 1.23 wt % of EDTA Acid was added to the tubs. After 24 hours, a dose equivalent to 3.2 wt % of Na2EDTA was added and dispersed. Ammonia was then measured for 35 days.

[2] = system: Staphylococcus-cohnii; assay: Lab headspace ammonia test on ground straw with synthetic poultry urine, Example 3; format: cell-based
Method: (§1) Synthetic Poultry Urine Preparation. In these Examples, synthetic urine was prepared as follows for each 100 g of synthetic poultry urine needed. The amounts can be scaled up or down as needed. The following components were added to a sterilized bottle: Urea (USP Grade): 0.43 g, Ammonia: 0.46 g, K3PO4 (USP grade): 6.8 g, Milli-Q water: 83.52 g. The bottle was capped and placed on a bottle roller at ambient temperature for 1 to 3 hours. The pH of the solution was measured to confirm the pH is between 13 and 14.
(§2) Bacteria Preparation. In these Examples, the Staphylococcus-cohnii and the Staphylococcus-cohnii/Staphylococcus-xylosus bacteria strains used were environmental isolates from poultry manure and cat litter respectively. As used herein, “Staphylococcus-cohnii/Staphylococcus-xylosus” refers to a bacteria strain that is an environmental isolate from cat feces that through DNA sequencing has been identified to be genetically similar to both Staphylococcus-cohnii and Staphylococcus-xylosus. The identifications were determined by DNA sequencing at an external lab with genus confidence level.
(§3) The bacteria strains were isolated on a sterile tryptic soy agar plate, grown for 2 days in a 30 degrees ° C. incubator and stored in a refrigerator. A fresh plate was prepared every 2 weeks.
The bacteria were grown the day before the start of the experiments by taking a loopful of the bacteria from the agar plate with a 10 uL loop and immersing it in 10 mL sterile tryptic soy broth filling half of the container. All bacteria used in the Examples are aerobic and therefore need air on top of the growth medium. The vials were incubated at 30 degrees C. in a shaking incubator at 100 rpm for 24 hours. The count of the bacteria in the growth media was determined by the serial dilutions method, where 10 serial dilutions of the growth medium in sterile Physiological Buffered Saline (PBS) solution are performed with 10× dilution each time. Each dilution was plated twice using 100 μL of growth media for each plate. The numbers of colonies were counted on the dilution plate that had between 30 and 300 colony forming units (CFU) on it. The number of colony forming units in the original growth media was then determined by back-calculating the number of dilutions. […] All pipettes, containers, tips, spoons etc. equipment used for these experiments were sterile in order to prevent contamination with other bacteria. Litters, treatments and chemicals used for preparing synthetic urine were used as-is, without sterilization.
Preparation of grinded straw bedding. A sterilized lab blender was loaded with straw and grinded at pulsed, high setting for 15-45 seconds. Then a new batch of straw was loaded to the blender. […]

[3] = system: Staphylococcus-xylosus/Staphylococcus-cohnii; assay: Lab headspace ammonia test on ground straw with synthetic poultry urine, Example 4; format: cell-based
Method: as §1, §2, §3
The bacteria were grown the day before the start of the experiments by taking a loopful of the bacteria from the agar plate with a 10 uL loop and immersing it in 10 mL sterile tryptic soy broth filling half of the container. All bacteria used in the Examples are aerobic and therefore need air on top of the growth medium. […] The count of the bacteria in the growth media was determined by the serial dilutions method, where 10 serial dilutions of the growth medium in sterile Physiological Buffered Saline (PBS) solution are performed with 10× dilution each time. […] The numbers of colonies were counted on the dilution plate that had between 30 and 300 colony forming units (CFU) on it. The number of colony forming units in the original growth media was then determined by back-calculating the number of dilutions. […]

[4] = 1 day after treatment, vs untreated control
[5] = 3 days after treatment, untreated control 200+ ppm (above tube limit)

## O=S(=O)([O-])O.[Na+] [1 wt % NaHSO4, NaHSO4]
[1]; 3 days after treatment
  % improvement in headspace ammonia: 92%
[1]; 7 days after treatment
  % improvement in headspace ammonia: 74%
[1]; 14 days after treatment
  % improvement in headspace ammonia: 37%
[1]; 21 days after treatment
  % improvement in headspace ammonia: −37%
[1]; 28 days after treatment
  % improvement in headspace ammonia: −16%

## O=C(O)CN(CCN(CC(=O)O)CC(=O)O)CC(=O)O.[K].[K] [2.5% K2EDTA sprayed on top, dipotassium ethylenediaminetetraacetic acid]
[2]; [4]
  % improvement in headspace ammonia: 64%
[2]; [5]
  % improvement in headspace ammonia: 5+ %
[3]; [4]
  % improvement in headspace ammonia: 57%

## O=C(O)CN(CCN(CC(=O)O)CC(=O)O)CC(=O)O.[K].[K] [2.5% K2EDTA, dipotassium ethylenediaminetetraacetic acid]
[2]; [4]
  % improvement in headspace ammonia: 64%
[2]; [5]
  % improvement in headspace ammonia: 8+ %
[3]; [4]
  % improvement in headspace ammonia: 73%
[3]; [5]
  % improvement in headspace ammonia: 12+ %
